Experimental data taken from patent publication US20080200467A1, “SOLUBLE EPOXIDE HYDROLASE INHIBITORS” (Arete Therapeutics, Inc., priority 2006, published 2008).

System: soluble epoxide hydrolase (sEH)
Test: Fluorescent Assay for Mouse and Human Soluble Epoxide Hydrolase (CMNPC substrate)
Type: biochemical
From the text: Fluorescent Assay for Mouse and Human Soluble Epoxide Hydrolase Recombinant mouse sEH (MsEH) and human sEH (HsEH) were produced in a baculovirus expression system as previously reported. Grant et al., J. Biol. Chem., 268:17628-17633 (1993); Beetham et al., Arch. Biochem. Biophys., 305:197-201 (1993). The expressed proteins were purified from cell lysate by affinity chromatography. Wixtrom et al., Anal. Biochem., 169:71-80 (1988). Protein concentration was quantified using the Pierce BCA assay using bovine serum albumin as the calibrating standard. The preparations were at least 97% pure as judged by SDS-PAGE and scanning densitometry. They contained no detectable esterase or glutathione transferase activity which can interfere with the assay. The assay was also evaluated with similar results in crude cell lysates or homogenate of tissues. The IC50s for each inhibitor were according to the following procedure: [drawing 218] […] Jones P. D. et. al.; Analytical Biochemistry 2005; 343: pp. 66-75) Bis/Tris HCl 25 mM pH 7.0 containing 0.1 mg/mL of BSA (buffer […] at 0.25 mM in DMSO. Mother solution of enzyme in buffer A (Mouse sEH at 6 μg/mL and Human sEH at 5 μg/mL). Inhibitor dissolved in DMSO at the appropriate concentration. In a black 96 well plate, fill all the wells with 150 μL of buffer A. Add 2 μL of DMSO in well A2 and A3, and then add 2 μL of inhibitor solution in A1 and A4 through A12. Add 150 μL of buffer A in row A, then mix several time and transfer 150 μL to row B. Repeat this operation up to row H. The 150 μL removed from row H is discarded. Add 20 μL of buffer A in column 1 and 2, then add 20 μL of enzyme solution to column 3 to 12. Incubate the plate for 5 minutes in the plate reader at 30° C. During incubation prepare the working solution of substrate by mixing 3.68 mL of buffer A (4×0.920 mL) with 266 μL (2×133 μL) of substrate solution). At t=0, add 30 μL of working substrate solution with multi-channel pipette labeled “Briggs 303” and start the reading ([S]final: 5 μM). Read with ex: 330 nm (20 nm) and em: 465 nm (20 nm) every 30 second for 10 minutes. The velocities are used to analyze and calculate the IC50s. Tables 4-6 show the activity of compounds when tested with the assay at 50, 500, 5000, 50000, and 500000 nM.

Structure (SMILES) | % Inhibition (Concentration 5000 nM) [%] | also measured
Cc1ccc(S(=O)(=O)N2CCC(CNC(=O)C(O)C34CC5CC(CC(C5)C3)C4)CC2)cc1 (stereo not shown) [Compound 127, 2-Adamantan-1-yl-2-hydroxy-N-[1-(toluene-4-sulfonyl)-piperidin-4-ylmethyl]-acetamide] | 84 | 
O=C(Nc1cccc(OCCCN2CCOCC2)c1)C(=O)c1ccc(C(F)(F)F)cc1 [Compound 1, N-[3-(3-Morpholin-4-yl-propoxy)-phenyl]-2-oxo-2-(4-trifluoromethyl-phenyl)-acetamide] |  | % Inhibition (Concentration 500 nM): 65%
O=C(NCc1ccc(OCc2ccccc2)cc1)C(O)C12CC3CC(CC(C3)C1)C2 (stereo not shown) [Compound 134, N-(4-(Benzyloxy)benzyl)-2-adamantan-1-yl-2-hydroxyacetamide] | 83 | 
CNS(=O)(=O)c1ccc(CCNC(=O)C(O)CCC23CC4CC(CC(C4)C2)C3)cc1 (stereo not shown) [Compound 156, 4-Adamantan-1-yl-2-hydroxy-N-(4-(N-methylsulfamoyl)phenethyl)butanamide] | 79 | 
O=C(NC1CCN(S(=O)(=O)c2cccc(C(F)(F)F)c2)CC1)C(O)C12CC3CC(CC(C3)C1)C2 (stereo not shown) [Compound 123, 2-Adamantan-1-yl-2-hydroxy-N-[1-(3-trifluoromethyl-benzenesulfonyl)-piperidin-4-yl]-acetamide] | 98 | 
O=C(NCCN1CCOCC1)c1ccc(NC(=O)C(O)c2ccc(C(F)(F)F)cc2)cc1 (stereo not shown) [Compound 102, 4-[2-Hydroxy-2-(4-trifluoromethyl-phenyl)-acetylamino]-N-(2-morpholin-4-yl-ethyl)-benzamide] |  | % Inhibition (Concentration 50000 nM): 63%
O=C(Nc1ccc(-n2ccnc2)cc1)C(O)c1ccc(C(F)(F)F)cc1 (stereo not shown) [Compound 109, 2-Hydroxy-N-(4-imidazol-1-yl-phenyl)-2-(4-trifluoromethyl-phenyl)-acetamide] |  | % Inhibition (Concentration 500000 nM): 80%
O=C(NC12CC3CC(CC(C3)C1)C2)C(O)c1cccc(OCc2ccccc2)c1 (stereo not shown) [Compound 103, N-Adamantan-1-yl-2-(3-benzyloxy-phenyl)-2-hydroxy-acetamide] | 87 | 
O=C(NC12CC3CC(CC(C3)C1)C2)C(O)Cc1ccc(OCc2ccccc2)cc1 (stereo not shown) [Compound 107, N-Adamantan-1-yl-3-(4-benzyloxy-phenyl)-2-hydroxy-propionamide] | 91 | 
O=C(O)CCCCCCCCCCCNC(=O)C(O)Cc1ccc(C(F)(F)F)cc1 (stereo not shown) [Compound 164, 12-(2-Hydroxy-3-(4-(trifluoromethyl)phenyl)propanamido)dodecanoicacid] | 59 | 
O=C(Nc1cccc(OCc2ccccc2)c1)C(O)c1ccc(C(F)(F)F)cc1 (stereo not shown) [Compound 105, N-(3-Benzyloxy-phenyl)-2-hydroxy-2-(4-trifluoromethyl-phenyl)-acetamide] | 99 | 
Cc1ccc(S(=O)(=O)N2CCC(NC(=O)C(=O)c3ccc(C(F)(F)F)cc3)CC2)cc1 [Compound 9, 2-Oxo-N-[1-(toluene-4-sulfonyl)-piperidin-4-yl]-2-(4-trifluoromethyl-phenyl)-acetamide] |  | % Inhibition (Concentration 50000 nM): 72%
O=C(NC1CCN(S(=O)(=O)c2ccc(Cl)cc2)CC1)C(O)CC12CC3CC(CC(C3)C1)C2 (stereo not shown) [Compound 148, N-(1-(4-Chlorophenylsulfonyl)piperidin-4-yl)-3-adamantan-1-yl-2-hydroxypropanamide] | 76 | 
O=C(O)CCCCCCCCCCCNC(=O)C(O)CC12CC3CC(CC(C3)C1)C2 (stereo not shown) [Compound 161, 12-(3-Adamantan-1-yl-2-hydroxypropanamido)dodecanoic acid] | 90 | 
Cc1ccc(S(=O)(=O)N2CCC(NC(=O)C(O)CCC3CCCCC3)CC2)cc1 (stereo not shown) [Compound 140, 4-Cyclohexyl-2-hydroxy-N-(1-tosylpiperidin-4-yl)butanamide] |  | % Inhibition (Concentration 500 nM): 78%
O=C(O)CCCCCCCCCCCNC(=O)C(O)c1ccc(C(F)(F)F)cc1 (stereo not shown) [Compound 159, 12-(2-Hydroxy-2-(4-(trifluoromethyl)phenyl)acetamido)dodecanoic acid] | 86 | 
O=C(Nc1ccc(OCc2ccccc2)cc1)C(O)CC1CCCCC1 (stereo not shown) [Compound 132, N-(4-(Benzyloxy)phenyl)-3-cyclohexyl-2-hydroxypropanamide] |  | % Inhibition (Concentration 50000 nM): 65%
CCCC(=O)N1CCC(NC(=O)C(=O)c2ccc(C(F)(F)F)cc2)CC1 [Compound 14, N-(1-Butyryl-piperidin-4-yl)-2-oxo-2-(4-trifluoromethyl-phenyl)-acetamide] |  | % Inhibition (Concentration 50000 nM): 77%
Cc1ccc(S(=O)(=O)N2CCC(NC(=O)C(O)C3CCCCC3)CC2)cc1 (stereo not shown) [Compound 137, 2-Cyclohexyl-2-hydroxy-N-(1-tosylpiperidin-4-yl)acetamide] | 82 | 

Structure (SMILES) | % Inhibition (Concentration 5000 nM) [%] | also measured
Cc1ccc(S(=O)(=O)N2CCC(NC(=O)C(O)CCc3ccc(C(F)(F)F)cc3)CC2)cc1 (stereo not shown) [Compound 136, 2-Hydroxy-N-(1-tosylpiperidin-4-yl)-4-(4-(trifluoromethyl)phenyl)butanamide] | 83 | 
O=C(O)CCCCCCCCCCCNC(=O)C(O)CCc1ccc(C(F)(F)F)cc1 (stereo not shown) [Compound 163, 12-(2-Hydroxy-4-(4-(trifluoromethyl)phenyl)butanamido)dodecanoicacid] | 89 | 
CCCC(=O)N1CCC(NC(=O)C(O)C2CCCCC2)CC1 (stereo not shown) [Compound 116, N-(1-Butyryl-piperidin-4-yl)-2-cyclohexyl-2-hydroxy-acetamide] | 81 | 
O=C(NCc1ccc(OCc2ccccc2)cc1)C(O)CC12CC3CC(CC(C3)C1)C2 (stereo not shown) [Compound 125, 3-Adamantan-1-yl-N-(4-benzyloxy-benzyl)-2-hydroxy-propionamide] | 98 | 
O=C(Nc1ccc(-n2ccnc2)cc1)C(O)C1CCCCC1 (stereo not shown) [Compound 112, 2-Cyclohexyl-2-hydroxy-N-(4-imidazol-1-yl-phenyl)-acetamide] |  | % Inhibition (Concentration 50000 nM): 80%
COc1ccc(C(O)C(=O)NCC23CC4CC(CC(C4)C2)C3)cc1 (stereo not shown) [Compound 120, N-Adamantan-1-ylmethyl-2-hydroxy-2-(4-methoxy-phenyl)-acetamide] | 79 | 
O=C(CCc1ccc(C(F)(F)F)cc1)C(=O)Nc1ccc(OCc2ccccc2)cc1 [Compound 23] |  | % Inhibition (Concentration 50000 nM): 93%
O=C(Nc1ccc(-n2ccnc2)cc1)C(=O)c1ccc(C(F)(F)F)cc1 [Compound 8, N-(4-Imidazol-1-yl-phenyl)-2-oxo-2-(4-trifluoromethyl-phenyl)-acetamide] | 85 | 
O=C(NCC12CC3CC(CC(C3)C1)C2)C(O)Cc1ccc(OCc2ccccc2)cc1 (stereo not shown) [Compound 106, N-Adamantan-1-ylmethyl-3-(4-benzyloxy-phenyl)-2-hydroxy-propionamide] |  | % Inhibition (Concentration 500 nM): 82%
Cc1ccc(S(=O)(=O)N2CCC(NC(=O)C(O)CCC34CC5CC(CC(C5)C3)C4)CC2)cc1 (stereo not shown) [Compound 138, 4-Adamantan-1-yl-2-hydroxy-N-(1-tosylpiperidin-4-yl)butanamide] |  | % Inhibition (Concentration 500 nM): 79%
Cc1ccc(S(=O)(=O)N2CCC(NC(=O)C(O)CC3CCCCC3)CC2)cc1 (stereo not shown) [Compound 135, 3-Cyclohexyl-2-hydroxy-N-(1-tosylpiperidin-4-yl)propanamide] | 89 | 
O=C(NCc1ccc(OCc2ccccc2)cc1)C(O)CCC12CC3CC(CC(C3)C1)C2 (stereo not shown) [Compound 146, N-(4-(Benzyloxy)benzyl)-4-adamantyl-2-hydroxybutanamide] | 73 | 
O=C(NC1CCN(S(=O)(=O)c2ccc(Cl)cc2)CC1)C(O)C12CC3CC(CC(C3)C1)C2 (stereo not shown) [Compound 149, N-(1-(4-Chlorophenylsulfonyl)piperidin-4-yl)-2-adamantan-1-yl-2-hydroxyacetamide] |  | % Inhibition (Concentration 50 nM): 95%
O=C(NCCc1ccc(OCc2ccccc2)cc1)C(O)CC12CC3CC(CC(C3)C1)C2 (stereo not shown) [Compound 147, N-(4-(Benzyloxy)phenethyl)-3-adamantan-1-yl-2-hydroxypropanamide] | 93 | 
O=C(Cc1ccc(OCc2ccccc2)cc1)C(=O)NCC12CC3CC(CC(C3)C1)C2 [Compound 6, N-Adamantan-1-ylmethyl-3-(4-benzyloxy-phenyl)-2-oxo-propionamide] | 71 | 
O=C(Nc1ccc(C(=O)NCCN2CCOCC2)cc1)C(=O)c1ccc(C(F)(F)F)cc1 [Compound 2, N-(2-Morpholin-4-yl-ethyl)-4-[2-oxo-2-(4-trifluoromethyl-phenyl)-acetylamino]-benzamide] |  | % Inhibition (Concentration 50000 nM): 82%
O=C(NC12CC3CC(CC(C3)C1)C2)C(=O)c1cccc(OCc2ccccc2)c1 [Compound 3, N-Adamantan-1-yl-2-(3-benzyloxy-phenyl)-2-oxo-acetamide] |  | % Inhibition (Concentration 50000 nM): 96%
COc1ccc(C(=O)C(=O)NCC23CC4CC(CC(C4)C2)C3)cc1 [Compound 22] | 78 | 
